Results taken from patent publication US7094909B2, “HIV protease inhibitors, compositions containing the same, their pharmaceutical uses and materials for their synthesis” (priority 2001, dated 2006).
Where two headings read alike, the source gives them in different places.

Legend:
[1] = target: T1, HIV-1 protease (Q7S mutant form) (Human immunodeficiency virus type 1 group M subtype B, UniProt P04585, Q495S); test: HIV-1 Protease RET assay; type: biochemical; details: Ave. Ki (nM), RET assay, Q7S enzyme, Morrison tight binding fit
T1 construct: made in house
Method in brief: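 Q7S HIV-1 protease, refolded from urea, 2 nM active dimer with 5 μM EDANS/DABCYL peptide cleaved at Tyr-Pro; fluorescence 340/490 nm. 12 min at 37 °C in 0.1M sodium acetate pH 4.8, 1M NaCl, 10% DMSO. Ki from Morrison tight-binding fit.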

[2] = system: HIV-1 NL4-3 or HIV-1 NL4-3(I84V/L90M); test: Susceptibility assay, p24 ELISA in infected MT-2 cells; type: cell-based; details: Human immunodeficiency virus 1, NL43, MT2, read-out: EC50 or IC50 (mM), values without asterisk (EC50)
Description: T-cell lines, CEM-SS, and MT-2, and viruses HIV-1 RF and HIV-1 NL4-3 (pNL4-3) were obtained from the National Institutes of Health (AIDS Research and Reference Reagent Program, Bethesda, Md.).
Compounds were tested in phenotypic susceptibility assays at Virologic, Inc., (See Petropoulos C. J., Parkin N. T., Limoli K. L., Lie Y. S., Wrin T., Huang W., Tian H., Smith D., Winslow G. A., Capon D J, Whitcomb J M. 2000, “A novel phenotypic drug susceptibility assay for human immunodeficiency virus type 1,” Antimicrob Agents Chemother 44(4):920–928) or using the assay described here. MT-2 cells were infected with either HIV-1 NL4-3 or HIV-1 NL4-3([…]) and incubated in the presence of serial 0.5 log dilutions of test compounds. Three days later, culture supernatants were collected and virus production, as determined by p24 ELISA, was assayed. Percent inhibition was calculated as p24 concentration in compound-treated samples as compared to infected, compound-free controls. Inhibition of viral replication is determined by measuring reduction in HIV p24 present in the culture supernatant, using a Beckman-Coulter p24HIV-1 Ag EIA kit and following the supplied protocol. Absorbance is read on a MRX microplate reader (Dynex Technologies). The EC50 was calculated as the concentration of compound that effected a decrease in the p24 production by infected, compound-treated cells to 50% of that produced by infected, compound-free cells.

[3] = system: HIV-1 (HIV-1 RF, HIV-1 NL4-3) in CEM-SS / MT-2 cells; test: Cytopathic effect (CPE) inhibition assay (XTT/MTT dye reduction); type: cell-based
Method in brief: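 CEM-SS or MT-2 cells were infected with HIV-1 RF or NL4-3 (moi 0.025–0.819) and plated at 2×10^4 cells/well with half-log compound dilutions for 6 days. Viability was read by XTT formazan at 450 nm after 4 h. EC50 restores formazan to 50% of uninfected untreated cells, CC50 halves it in uninfected cells, and TI = CC50/EC50.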

[4] = Human immunodeficiency virus 1, NL43, read-out: Ave CPE EC50

SMILES	Ki [1]	EC50 [2]	EC50 [3, 4]	EC50 ([3]; Human immunodeficiency virus 1, NL43, read-out: Ave CPE EC50 (mM))
Cc1c(O)cccc1C(=O)N[C@@H](Cc1ccccc1)[C@H](O)C(=O)N1CC(F)(F)C(C)(C)[C@H]1C(=O)N[C@H]1CCc2ccccc21 [Example C16, (S)-4,4-Difluoro-1-[(2S,3S)-2-hydroxy-3-(3-hydroxy-2-methyl-benzoylamino)-4-phenyl-butyryl]-3,3-dimethyl-pyrrolidine-2-carboxylic acid (S)-indan-1-ylamide]	< 0.1 nM	201 nM	19 nM	
C#CCNC(=O)[C@H]1N(C(=O)[C@@H](O)[C@H](Cc2ccccc2)NC(=O)c2cccc(O)c2C)CC(F)(F)C1(C)C [Example C17, (S)-4,4-Difluoro-1-[(2S,3S)-2-hydroxy-3-(3-hydroxy-2-methyl-benzoylamino)-4-phenyl-butyryl]-3,3-dimethyl-pyrrolidine-2-carboxylic acid prop-2-ynylamide]	< 0.1 nM	186 nM	115 nM	
Cc1c(O)cccc1C(=O)N[C@@H](Cc1ccccc1)[C@H](O)C(=O)N1CC(F)(F)C(C)(C)[C@H]1C(=O)NCc1ccc(F)cc1Cl [Example C18, (S)-4,4-Difluoro-1-((2S,3S)-2-hydroxy-3-{[1-(3-hydroxy-2-methyl-phenyl)-methanoyl]-amino}-4-phenyl-butanoyl)-3,3-dimethyl-pyrrolidine-2-carboxylic acid 2-chloro-4-fluoro-benzylamide]	< 0.1 nM	618 nM	148 nM	
CCCNC(=O)[C@H]1N(C(=O)[C@@H](O)[C@H](Cc2ccccc2)NC(=O)c2cccc(O)c2C)CC(F)(F)C1(C)C [Example C19, (S)-4,4-Difluoro-1-((2S,3S)-2-hydroxy-3-{[1-(3-hydroxy-2-methyl-phenyl)-methanoyl]-amino}-4-phenyl-butanoyl)-3,3-dimethyl-pyrrolidine-2-carboxylic acid propylamide]	< 0.1 nM	84 nM	55 nM	
Cc1c(O)cccc1C(=O)N[C@@H](Cc1ccccc1)[C@H](O)C(=O)N1CC(F)(F)C(C)(C)[C@H]1C(=O)NCC(C)C [Example C21, 4,4-Difluoro-1-[2-hydroxy-3-(3-hydroxy-2-methyl-benzoylamino)-4-phenyl-butyryl]-3,3-dimethyl-pyrrolidine-2-carboxylic acid isobutyl-amide]	< 0.1 nM	81 nM	15 nM	
Cc1c(O)cccc1C(=O)N[C@@H](Cc1ccccc1)[C@H](O)C(=O)N1CC(F)(F)C(C)(C)[C@H]1C(=O)NCc1cccs1 [Example C22, (S)-4,4-Difluoro-1-[(2S,3S)-2-hydroxy-3-(3-hydroxy-2-methyl-benzoylamino)-4-phenyl-butyryl]-3,3-dimethyl-pyrrolidine-2-carboxylic acid (thiophen-2-ylmethyl)-amide]	< 0.1 nM	62 nM	15 nM	
Cc1c(O)cccc1C(=O)N[C@@H](Cc1ccccc1)[C@H](O)C(=O)N1CC(F)(F)C(C)(C)[C@H]1C(=O)NCC(F)(F)F [Example C23, (S)-4,4-Difluoro-1-[(2S,3S)-2-hydroxy-3-(3-hydroxy-2-methyl-benzoylamino)-4-phenyl-butyryl]-3,3-dimethyl-pyrrolidine-2-carboxylic acid (2,2,2-trifluoro-ethyl)-amide]	< 0.1 nM	109 nM	37 nM	
Cc1c(O)cccc1C(=O)N[C@@H](Cc1ccccc1)[C@H](O)C(=O)N1CC(F)(F)C(C)(C)[C@H]1C(=O)N[C@H]1CCOc2ccccc21 [Example C24, (S)-4,4-Difluoro-1-[(2S,3S)-2-hydroxy-3-(3-hydroxy-2-methyl-benzoylamino)-4-phenyl-butyryl]-3,3-dimethyl-pyrrolidine-2-carboxylic acid (S)-1-benzopyran-4-y]	< 0.1 nM	74 nM	19 nM	
COc1ccc(CNC(=O)[C@H]2N(C(=O)[C@@H](O)[C@H](Cc3ccccc3)NC(=O)c3cccc(O)c3C)CC(F)(F)C2(C)C)cc1 [Example C25, (S)-4,4-Difluoro-1-[(2S,3S)-2-hydroxy-3-(3-hydroxy-2-methyl-benzoylamino)-4-phenyl-butyryl]-3,3-dimethyl-pyrrolidine-2-carboxylic acid 4-methoxy-benzylamide]	< 0.1 nM	68 nM	31 nM	
Cc1c(O)cccc1C(=O)N[C@@H](Cc1ccccc1)[C@H](O)C(=O)N1CC(F)(F)C(C)(C)[C@H]1C(=O)NCc1ccc2c(c1)OCO2 [Example C26, (S)-4,4-Difluoro-1-[(2S,3S)-2-hydroxy-3-(3-hydroxy-2-methyl-benzoylamino)-4-phenyl-butyryl]-3,3-dimethyl-pyrrolidine-2-carboxylic acid (1,3-benzodioxol-5-ylmethyl)-amide]	< 0.1 nM	131 nM	76 nM	
Cc1c(O)cccc1C(=O)N[C@@H](Cc1ccccc1)[C@H](O)C(=O)N1COC(C)(C)[C@H]1C(=O)N[C@H]1CCc2ccccc21 [Example C27, (S)-3-((2S,3S)-2-Hydroxy-3-{[1-(3-hydroxy-2-methyl-phenyl)-methanoyl]-amino}-4-phenyl-butanoyl)-5,5-dimethyl-oxazolidine-4-carboxylic acid (S)-indan-1-ylamide]	0.13 nM	189 nM	115 nM	
Cc1c(O)cccc1C(=O)N[C@@H](Cc1ccccc1)[C@H](O)C(=O)N1COC(C)(C)[C@H]1C(=O)N[C@@H]1C=CCCC1 [Example C29, (S)-3-((2S,3S)-2-Hydroxy-3-{[1-(3-hydroxy-2-methyl-phenyl)-methanoyl]-amino}-4-phenyl-butanoyl)-5,5-dimethyl-oxazolidine-4-carboxylic acid (S)-cyclohex-2-enylamide]	0.18 nM	1360 nM	142 nM	
Cc1ccccc1CNC(=O)[C@H]1N(C(=O)[C@@H](O)[C@H](Cc2ccccc2)NC(=O)c2cccc(O)c2C)CSC12CCCC2 [Example C30, 3-(2-Hydroxy-3-{[1-(3-hydroxy-2-methyl-phenyl)-methanoyl]-amino}-4-phenyl-butanoyl)-1-thia-3-aza-spiro [4.4]nonane-4-carboxylic acid 2-methyl-benzamide]	< 0.1 nM	273 nM	18 nM	
Cc1ccccc1CNC(=O)[C@H]1N(C(=O)[C@@H](O)[C@H](Cc2ccccc2)NC(=O)c2cccc(O)c2C)CSC12CCCCC2 [Example C31, 3-(2-Hydroxy-3-{[1-(2-methyl-3-hydroxy-phenyl)-methanoyl]-amino}-4-phenyl-butanoyl)-1-thia-3-aza-spiro[4.5]decane-4-carboxylic acid 2-methyl-benzylamide]	0.17 nM	1070 nM	31 nM	
Cc1ccccc1CNC(=O)[C@H]1N(C(=O)[C@@H](O)[C@H](Cc2ccccc2)NC(=O)c2cccc(O)c2C)CSC12CCC2 [Example C32, 7-(2-Hydroxy-3-{[1-(3-hydroxy-2-methyl-phenyl)-methanoyl]-amino}-4-phenyl-butanoyl)-5-thia-7-aza-spiro[3.4]octane-8-carboxylic acid-2-methyl benzylamide]	< 0.1 nM	190 nM	9 nM	
CCCNC(=O)[C@H]1N(C(=O)[C@@H](O)[C@H](Cc2ccccc2)NC(=O)c2cccc(O)c2C)CSC12CCCC2 [Example C33, (R)-3-((2S,3S)-2-Hydroxy-3-{[1-(3-hydroxy-2-methyl-phenyl)-methanoyl]-amino}-4-phenyl-butanoyl)-1-thia-3-aza-spiro[4.4]nonane-4-carboxylic acid propylamide]	0.13 nM	1270 nM	45 nM	
C/C=C(\C)CNC(=O)[C@H]1N(C(=O)[C@@H](O)[C@H](Cc2ccccc2)NC(=O)c2cccc(O)c2C)CSC12CCCC2 [Example C34, (R)-3-((2S,3S)-2-Hydroxy-3-{[1-(3-hydroxy-2-methyl-phenyl)-methanoyl]-amino}-4-phenyl-butanoyl)-1-thia-3-aza-spiro[4.4]nonane-4-carboxylic acid ((E)-2-methyl-but-2-enyl)-amide]	< 0.1 nM	627 nM		22 nM
